# Laboratory results reported in ChEMBL document CHEMBL2331130, “Synthesis and antibacterial activity of 9-oxime ether non-ketolides, and novel binding mode of alkylides with bacterial rRNA” (2013).
# Columns and labels:
# Assay type in all cases: functional
# [1] = tested on: Staphylococcus epidermidis; assay: Antibacterial activity against methicillin-susceptible, MLS-resistant (inducible) Staphylococcus epidermidis E1 by broth microdilution method
# [2] = tested on: Staphylococcus epidermidis; assay: Antibacterial activity against methicillin-resistant, MLS-resistant (constitutive) Staphylococcus epidermidis E2 by broth microdilution method
# Streptococcus pyogenes [3] = assay: Ratio of telithromycin MIC to compound MIC for MLS-resistant (constitutive) Streptococcus pyogenes A2 by broth microdilution method
# Streptococcus pneumoniae [4] = assay: Antibacterial activity against erythromycin-susceptible Streptococcus pneumoniae ATCC 49619 by broth microdilution method
# Streptococcus pyogenes [5] = assay: Antibacterial activity against MLS-resistant (constitutive) Streptococcus pyogenes A2 by broth microdilution method
# [6] = tested on: Streptococcus dysgalactiae; assay: Antibacterial activity against erythromycin-resistant Streptococcus dysgalactiae A1 by broth microdilution method
# Streptococcus pneumoniae [7] = assay: Antibacterial activity against MLS-resistant (constitutive), penicillin-resistant Streptococcus pneumoniae PU11 by broth microdilution method
# [8] = tested on: Staphylococcus epidermidis; assay: Antibacterial activity against methicillin-resistant, coagulase-negative, MLS-resistant (inducible) Staphylococcus epidermidis E3 by broth microdilution method
# Streptococcus pyogenes [9] = assay: Antibacterial activity against erythromycin-susceptible Streptococcus pyogenes A3 by broth microdilution method
# Staphylococcus aureus [10] = assay: Ratio of telithromycin MIC to compound MIC for methicillin-resistant, […], MLS-resistant (constitutive) Staphylococcus aureus PU 19 by broth microdilution method
# Staphylococcus aureus [11] = assay: Antibacterial activity against erythromycin-susceptible Staphylococcus aureus ATCC 29213 by broth microdilution method
# Staphylococcus aureus [12] = assay: Antibacterial activity against methicillin-resistant, MLS-resistant (inducible) Staphylococcus aureus PU 32 by broth microdilution method
# [13] = tested on: Staphylococcus epidermidis; assay: Ratio of telithromycin MIC to compound MIC for methicillin-resistant, coagulase-negative, MLS-resistant (inducible) Staphylococcus epidermidis E3 by broth microdilution method
# Streptococcus pneumoniae [14] = assay: Antibacterial activity against penicillin-susceptible Streptococcus pneumoniae PU09 harboring mef gene by broth microdilution method
# Staphylococcus aureus [15] = assay: Antibacterial activity against methicillin-resistant, […], MLS-resistant (constitutive) Staphylococcus aureus PU 19 by broth microdilution method
# [16] = tested on: Streptococcus dysgalactiae; assay: Ratio of telithromycin MIC to compound MIC for erythromycin-resistant Streptococcus dysgalactiae A1 by broth microdilution method
# Streptococcus pneumoniae [17] = assay: Antibacterial activity against MLS-resistant (constitutive), penicillin-susceptible Streptococcus pneumoniae PU27 by broth microdilution method
# Staphylococcus aureus [18] = assay: Antibacterial activity against methicillin-resistant, MLS-resistant (constitutive) Staphylococcus aureus PU 20 by broth microdilution method
# Staphylococcus aureus [19] = assay: Antibacterial activity against methicillin-susceptible, MLS-resistant (inducible) Staphylococcus aureus PU 64 by broth microdilution method
SMILES,MIC [1],MIC [2],Ratio (Streptococcus pyogenes [3]),MIC (Streptococcus pneumoniae [4]),MIC (Streptococcus pyogenes [5]),MIC [6],MIC (Streptococcus pneumoniae [7]),MIC [8],MIC (Streptococcus pyogenes [9]),Ratio (Staphylococcus aureus [10]),MIC (Staphylococcus aureus [11]),MIC (Staphylococcus aureus [12]),Ratio [13],MIC (Streptococcus pneumoniae [14]),MIC (Staphylococcus aureus [15]),Ratio [16],MIC (Streptococcus pneumoniae [17]),MIC (Staphylococcus aureus [18]),MIC (Staphylococcus aureus [19])
CC[C@H]1OC(=O)[C@H](C)C(=O)[C@H](C)[C@@H](O[C@@H]2O[C@H](C)C[C@H](N(C)C)[C@H]2O)[C@](C)(OC)C[C@@H](C)/C(=N\OC/C=C/c2cnc3ccccc3c2)[C@H](C)[C@H]2OC(=O)O[C@@]21C,8 µg/mL,128 µg/mL,4,0.125 µg/mL,32 µg/mL,0.5 µg/mL,64 µg/mL,2 µg/mL,0.032 µg/mL,4,0.5 µg/mL,1 µg/mL,4,1 µg/mL,64 µg/mL,4,,,
CC[C@H]1OC(=O)[C@H](C)C(=O)[C@H](C)[C@@H](O[C@@H]2O[C@H](C)C[C@H](N(C)C)[C@H]2O)[C@](C)(OC)C[C@@H](C)/C(=N\OC/C=C/c2ccc(-c3ccccn3)s2)[C@H](C)[C@H]2OC(=O)O[C@@]21C,32 µg/mL,> 256 µg/mL,,0.5 µg/mL,64 µg/mL,4 µg/mL,64 µg/mL,64 µg/mL,0.5 µg/mL,,8 µg/mL,8 µg/mL,,4 µg/mL,128 µg/mL,,,,
CC[C@H]1OC(=O)[C@H](C)C(=O)[C@H](C)[C@@H](O[C@@H]2O[C@H](C)C[C@H](N(C)C)[C@H]2O)[C@](C)(OC)C[C@@H](C)/C(=N\OC/C=C/c2ccc(C(=O)c3ccccc3)s2)[C@H](C)[C@H]2OC(=O)O[C@@]21C,32 µg/mL,> 256 µg/mL,,2 µg/mL,64 µg/mL,4 µg/mL,64 µg/mL,64 µg/mL,2 µg/mL,,16 µg/mL,16 µg/mL,,4 µg/mL,> 256 µg/mL,,,,
CC[C@H]1OC(=O)[C@H](C)C(=O)[C@H](C)[C@@H](O[C@@H]2O[C@H](C)C[C@H](N(C)C)[C@H]2O)[C@](C)(OC)C[C@@H](C)/C(=N\OC/C=C/c2ccc(-c3cccs3)cc2)[C@H](C)[C@H]2OC(=O)O[C@@]21C,64 µg/mL,256 µg/mL,,2 µg/mL,32 µg/mL,16 µg/mL,64 µg/mL,64 µg/mL,1 µg/mL,,32 µg/mL,64 µg/mL,,16 µg/mL,64 µg/mL,,,,
CC[C@H]1OC(=O)[C@H](C)[C@@H](O/C=C\Cc2cncnc2)[C@H](C)[C@@H](O[C@@H]2O[C@H](C)C[C@H](N(C)C)[C@H]2O)[C@](C)(OC)C[C@@H](C)/C(=N\OC/C=C/c2cnc3ccccc3c2)[C@H](C)[C@H]2OC(=O)O[C@@]21C,> 256 µg/mL,> 256 µg/mL,,2 µg/mL,64 µg/mL,16 µg/mL,128 µg/mL,> 256 µg/mL,2 µg/mL,,32 µg/mL,> 256 µg/mL,,32 µg/mL,> 256 µg/mL,,64 µg/mL,> 256 µg/mL,32 µg/mL
CC[C@H]1OC(=O)[C@H](C)[C@@H](O)[C@H](C)[C@@H](O[C@@H]2O[C@H](C)C[C@H](N(C)C)[C@H]2O)[C@](C)(OC)C[C@@H](C)/C(=N\OC/C=C/c2cnc3ccccc3c2)[C@H](C)[C@H]2OC(=O)O[C@@]21C,128 µg/mL,> 256 µg/mL,,4 µg/mL,64 µg/mL,16 µg/mL,64 µg/mL,> 256 µg/mL,8 µg/mL,,128 µg/mL,128 µg/mL,,4 µg/mL,> 256 µg/mL,,64 µg/mL,> 256 µg/mL,256 µg/mL
CC[C@H]1OC(=O)[C@H](C)[C@@H](O)[C@H](C)[C@@H](O[C@@H]2O[C@H](C)C[C@H](N(C)C)[C@H]2O)[C@](C)(OC)C[C@@H](C)/C(=N\OCCCc2cncc3ccccc23)[C@H](C)[C@H]2OC(=O)O[C@@]21C,> 256 µg/mL,> 256 µg/mL,,8 µg/mL,32 µg/mL,16 µg/mL,32 µg/mL,> 256 µg/mL,4 µg/mL,,> 256 µg/mL,> 256 µg/mL,,8 µg/mL,> 256 µg/mL,,32 µg/mL,> 256 µg/mL,256 µg/mL
CC[C@H]1OC(=O)[C@H](C)[C@@H](OC(=O)Cc2cccnc2)[C@H](C)[C@@H](O[C@@H]2O[C@H](C)C[C@H](N(C)C)[C@H]2O)[C@](C)(OC)C[C@@H](C)/C(=N\OC/C=C/c2cnc3ccccc3c2)[C@H](C)[C@H]2OC(=O)O[C@@]21C,> 256 µg/mL,> 256 µg/mL,,2 µg/mL,128 µg/mL,16 µg/mL,128 µg/mL,> 256 µg/mL,1 µg/mL,,64 µg/mL,64 µg/mL,,8 µg/mL,> 256 µg/mL,,64 µg/mL,> 256 µg/mL,32 µg/mL
CC[C@H]1OC(=O)[C@H](C)[C@@H](OC(=O)Cc2ccccn2)[C@H](C)[C@@H](O[C@@H]2O[C@H](C)C[C@H](N(C)C)[C@H]2O)[C@](C)(OC)C[C@@H](C)/C(=N\OC/C=C/c2cnc3ccccc3c2)[C@H](C)[C@H]2OC(=O)O[C@@]21C,32 µg/mL,> 256 µg/mL,,1 µg/mL,32 µg/mL,8 µg/mL,64 µg/mL,32 µg/mL,0.5 µg/mL,,32 µg/mL,64 µg/mL,,16 µg/mL,> 256 µg/mL,,32 µg/mL,> 256 µg/mL,32 µg/mL
CC[C@H]1OC(=O)[C@H](C)[C@@H](OC(=O)Cc2cccnc2)[C@H](C)[C@@H](O[C@@H]2O[C@H](C)C[C@H](N(C)C)[C@H]2O)[C@](C)(OC)C[C@@H](C)/C(=N\OCC#Cc2cncc3ccccc23)[C@H](C)[C@H]2OC(=O)O[C@@]21C,> 256 µg/mL,> 256 µg/mL,,1 µg/mL,64 µg/mL,8 µg/mL,64 µg/mL,> 256 µg/mL,1 µg/mL,,32 µg/mL,64 µg/mL,,8 µg/mL,> 256 µg/mL,,64 µg/mL,> 256 µg/mL,32 µg/mL
CC[C@H]1OC(=O)[C@H](C)[C@@H](OC(=O)Cc2ccccn2)[C@H](C)[C@@H](O[C@@H]2O[C@H](C)C[C@H](N(C)C)[C@H]2O)[C@](C)(OC)C[C@@H](C)/C(=N\OCC#Cc2cncc3ccccc23)[C@H](C)[C@H]2OC(=O)O[C@@]21C,> 256 µg/mL,> 256 µg/mL,,1 µg/mL,32 µg/mL,8 µg/mL,32 µg/mL,> 256 µg/mL,8 µg/mL,,32 µg/mL,32 µg/mL,,8 µg/mL,> 256 µg/mL,,32 µg/mL,> 256 µg/mL,16 µg/mL
CC[C@H]1OC(=O)[C@H](C)[C@@H](O[C@H]2C[C@@](C)(OC)[C@@H](O)[C@H](C)O2)[C@H](C)[C@@H](O[C@@H]2O[C@H](C)C[C@H](N(C)C)[C@H]2O)[C@](C)(O)C[C@@H](C)CN(C)[C@H](C)[C@@H](O)[C@]1(C)O [AZITHROMYCIN],> 256 µg/mL,> 256 µg/mL,,0.25 µg/mL,> 256 µg/mL,64 µg/mL,> 256 µg/mL,> 256 µg/mL,≤ 0.008 µg/mL,,2 µg/mL,> 256 µg/mL,,64 µg/mL,> 256 µg/mL,,,,
CC[C@H]1OC(=O)[C@H](C)[C@@H](O[C@H]2C[C@@](C)(OC)[C@@H](O)[C@H](C)O2)[C@H](C)[C@@H](O[C@@H]2O[C@H](C)C[C@H](N(C)C)[C@H]2O)[C@](C)(OC)C[C@@H](C)C(=O)[C@H](C)[C@@H](O)[C@]1(C)O [CLARITHROMYCIN],> 256 µg/mL,> 256 µg/mL,,0.032 µg/mL,> 256 µg/mL,16 µg/mL,> 256 µg/mL,> 256 µg/mL,≤ 0.008 µg/mL,,0.5 µg/mL,> 256 µg/mL,,> 256 µg/mL,> 256 µg/mL,,> 256 µg/mL,> 256 µg/mL,> 256 µg/mL
CC[C@H]1OC(=O)[C@H](C)C(=O)[C@H](C)[C@@H](O[C@@H]2O[C@H](C)C[C@H](N(C)C)[C@H]2O)[C@](C)(OC)C[C@@H](C)C(=O)[C@H](C)[C@H]2N(CCCCn3cnc(-c4cccnc4)c3)C(=O)O[C@]12C [TELITHROMYCIN],1 µg/mL,> 256 µg/mL,,≤ 0.008 µg/mL,128 µg/mL,2 µg/mL,4 µg/mL,8 µg/mL,≤ 0.008 µg/mL,,0.25 µg/mL,1 µg/mL,,0.125 µg/mL,> 256 µg/mL,,0.125 µg/mL,> 256 µg/mL,0.5 µg/mL
